Measured values: US20080176261A1, “Colorimetric Substrate and Methods for Detecting Poly(ADP-ribose) Polymerase Activity including PARP Enzymes PARP-1, VPARP, and Tankyrase-1” (THE BOARD OF TRUSTEES OF THE UNIVERSITY OF ILLINOIS, priority 2007, published 2008)
Read-outs that look alike come from different tables or passages of the source. One block for each molecule: values may come before it.

Key:
[1] = system: T1, Nc1ncnc2c1ncn2[C@@H]1O[C@H](COP(=O)(O)OP(=O)(O)OC[C@H]2O[C@@H](Oc3ccc([N+](=O)[O-])cc3)C(O)C2O)C(O)C1O; assay: Continuous colorimetric PARP kinetic assay with ADP-ribose-pNP, PARP-1; assay type: biochemical; details: other: PARP-1 activated with DNase digested DNA; substrate ADP-ribose-pNP; 405 nm; pH 8.0
T1 construct: purchased Trevigen
Procedure: (§1) With the calorimetric substrate ADP-ribose-pNP in hand, a continuous calorimetric assay for PARP activity was developed and the kinetic parameters for three PARP isozymes were determined. In a 96-well plate, a range of concentrations of ADP-ribose-pNP in PARP assay buffer were incubated with either PARP-1 (DNase digested DNA was added to activate PARP-1), tankyrase-1 (refers to “active domain,” see Supporting Information), or VPARP (also refers to the “active domain”), and the optical density at 405 nm was measured every 60 seconds over a 2 hour time period. Change in absorbance was assessed in triplicate, and blanks containing 0 to 700 μM ADP-ribose-pNP in PARP assay buffer were also measured over the same time period. The absorbance of a range of p-nitrophenol concentrations was determined at 405 nm, and the slope of this calibration curve (see Supporting Information) was used to convert the absorbencies to moles of product generated; in this way the kinetic parameters for PARP-1, tankyrase-1, and VPARP were calculated (see Table 1 and FIG. 2).
Preparation of damaged DNA for PARP-1. 500 μL of Herringsperm DNA (10 mg/ml) was added to 100 mL DNase buffer (400 mM Tris-HCl, 100 mM MgSO4, and 10 mM CaCl2, pH 8.0), along with 50 μL of DNase (1 unit/mL). This solution was first incubated at 37° C. for 1 minute and then heated at 90° C. for 20 minutes to inactivate the DNase. Damaged DNA was used without any further purification.
Kinetics of PARP-1. A 160 μL volume of PARP-1 (0.45 mg/mL) was premixed with 262.4 μL of the damaged herringsperm DNA and 2777.6 μl of PARP assay buffer. This mixture (known as activated PARP in assay buffer) was allowed to equilibrate on ice for 4 hours. The ADP-ribose-pNP colorimetric substrate was diluted from a 5000 μM stock in PARP assay buffer directly into the wells of a 96 well plate. […] The plate was then read on a SpectraMax plus UV/Vis plate reader (Molecular Devices), at 405 nm for 2 hours, reading once every minute with mixing between reads.
(§2) Data analysis. […] Graphs were analyzed using Table Curve 2D.

tankyrase-1 [2] = biological target: T2, tankyrase-1 (Homo sapiens, UniProt O95271); details: tankyrase-1 literature, β-NAD+ as substrate; cited from earlier work
T2 sequence (O95271 1-1327): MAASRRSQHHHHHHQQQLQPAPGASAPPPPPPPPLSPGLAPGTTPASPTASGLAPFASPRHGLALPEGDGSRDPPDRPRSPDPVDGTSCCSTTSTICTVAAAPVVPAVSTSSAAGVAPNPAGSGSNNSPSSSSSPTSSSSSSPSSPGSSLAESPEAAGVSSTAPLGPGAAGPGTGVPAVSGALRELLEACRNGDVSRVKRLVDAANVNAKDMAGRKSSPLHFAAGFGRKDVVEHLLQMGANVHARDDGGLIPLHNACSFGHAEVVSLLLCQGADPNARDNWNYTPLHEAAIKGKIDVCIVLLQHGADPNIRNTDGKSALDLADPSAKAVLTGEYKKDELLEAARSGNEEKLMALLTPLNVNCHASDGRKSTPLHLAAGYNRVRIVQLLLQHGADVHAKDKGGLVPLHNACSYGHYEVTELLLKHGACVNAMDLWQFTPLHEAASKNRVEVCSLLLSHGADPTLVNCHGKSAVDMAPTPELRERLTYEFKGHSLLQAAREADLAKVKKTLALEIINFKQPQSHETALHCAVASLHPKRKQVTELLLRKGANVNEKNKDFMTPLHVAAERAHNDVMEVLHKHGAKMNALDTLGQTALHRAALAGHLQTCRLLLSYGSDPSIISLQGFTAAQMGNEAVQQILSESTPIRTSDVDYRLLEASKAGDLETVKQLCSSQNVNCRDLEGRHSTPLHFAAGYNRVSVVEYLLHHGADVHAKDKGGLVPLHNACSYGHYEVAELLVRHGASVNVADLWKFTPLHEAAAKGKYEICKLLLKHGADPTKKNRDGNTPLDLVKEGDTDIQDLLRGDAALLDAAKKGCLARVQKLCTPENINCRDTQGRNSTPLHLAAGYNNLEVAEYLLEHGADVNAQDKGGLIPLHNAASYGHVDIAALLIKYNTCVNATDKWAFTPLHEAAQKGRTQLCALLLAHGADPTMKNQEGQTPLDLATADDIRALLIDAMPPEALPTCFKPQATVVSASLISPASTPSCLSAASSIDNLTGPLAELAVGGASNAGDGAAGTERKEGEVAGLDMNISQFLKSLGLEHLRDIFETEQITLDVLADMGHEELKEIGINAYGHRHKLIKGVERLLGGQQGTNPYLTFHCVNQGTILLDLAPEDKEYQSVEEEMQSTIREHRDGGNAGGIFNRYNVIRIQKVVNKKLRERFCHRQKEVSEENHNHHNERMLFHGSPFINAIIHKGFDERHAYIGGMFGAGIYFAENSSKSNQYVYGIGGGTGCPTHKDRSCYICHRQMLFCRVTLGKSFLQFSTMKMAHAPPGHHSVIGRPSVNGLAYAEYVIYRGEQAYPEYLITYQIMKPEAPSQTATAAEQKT

PARP-1 [3] = biological target: T3, PARP-1 (Homo sapiens, UniProt P09874); set-up: purchased Trevigen; details: PARP-1 literature, natural β-NAD+ substrate; cited from earlier work
tankyrase-1 [4] = biological target: T4, tankyrase-1 (Homo sapiens, UniProt O95271); assay: Continuous colorimetric PARP kinetic assay with ADP-ribose-pNP, tankyrase-1 active domain; assay type: biochemical
T4 construct: The SAM and PARP domain of tankyrase was subcloned into pGEX-5X-1; made in house; host or cells: E. coli Rosetta
T4 sequence (O95271 1030-1327): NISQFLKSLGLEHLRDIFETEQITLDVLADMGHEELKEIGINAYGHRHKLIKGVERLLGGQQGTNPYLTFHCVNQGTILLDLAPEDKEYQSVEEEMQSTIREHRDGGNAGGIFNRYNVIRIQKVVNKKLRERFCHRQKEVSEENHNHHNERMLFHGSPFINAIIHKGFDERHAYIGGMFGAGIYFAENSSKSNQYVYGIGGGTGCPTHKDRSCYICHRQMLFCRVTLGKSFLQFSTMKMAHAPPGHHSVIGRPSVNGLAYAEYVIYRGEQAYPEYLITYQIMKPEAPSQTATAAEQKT
Procedure: as §1
Kinetics of VPARP and Tankyrase-1. The ADP-ribose-pNP colorimetric substrate was diluted from a 10 mM stock in PARP assay buffer to 1142.9 μM. From this stock, dilutions into PARP assay buffer were made in 15×1.7 mL tubes so that the volume was 490 μL. This was enough to perform the experiment in triplicate, with additional wells (no protein) to serve as blanks for each substrate concentration. The concentration of substrate in each tube was made such that 70 μL from each tube could be added to the wells of a 96 well plate. When each well was brought to the final volume of 100 μL, the desired final concentration was reached. See FIG. 2B and FIG. 5B for tank-ad and VPARP substrate concentrations, respectively. Concentrations ranged from 0 to 700 μM with a finer distribution at lower substrate concentrations.
The plate was divided in half with protein added to half the wells and the other half serving as blanks containing only PARP assay buffer and substrate. After adding 70 μL of substrate from each tube to 3 wells on the protein side or 3 wells of the blank side, 30 μL of PARP assay buffer was added to all the wells of the blank side. Next, 30 μL of the enzyme was added to each of the wells on the protein half of the plate to initiate the reaction, with a final concentration of tankyrase per well of 21.8 μM and the final concentration of VPARP per well of 19.8 μM. The plate was then read on a SpectraMax plus 384 UV/Vis plate reader (Molecular Devices), at 405 nm for 2 hours with observations performed once every minute. Mixing was conducted between observations.
as §2

VPARP = biological target: T5, VPARP (Homo sapiens, UniProt Q9UKK3); assay: Continuous colorimetric PARP kinetic assay with ADP-ribose-pNP, VPARP active domain; assay type: biochemical; details: substrate ADP-ribose-pNP, 405 nm
T5 construct: The plasmid with the catalytic domain of VPARP, pET28b-p193cat; made in house; host or cells: E. coli Rosetta
T5 sequence (Q9UKK3 369-573 limits assumed): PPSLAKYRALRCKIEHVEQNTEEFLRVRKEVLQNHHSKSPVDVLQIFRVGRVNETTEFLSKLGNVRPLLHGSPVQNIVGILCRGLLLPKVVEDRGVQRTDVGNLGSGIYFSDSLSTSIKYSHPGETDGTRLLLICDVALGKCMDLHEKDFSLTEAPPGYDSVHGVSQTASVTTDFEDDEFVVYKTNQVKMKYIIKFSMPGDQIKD
Procedure: (§3) With the calorimetric substrate ADP-ribose-pNP in hand, a continuous calorimetric assay for PARP activity was developed and the kinetic parameters for three PARP isozymes were determined. In a 96-well plate, a range of concentrations of ADP-ribose-pNP in PARP assay buffer were incubated with either PARP-1 (DNase digested DNA was added to activate PARP-1), tankyrase-1 (refers to “active domain,” see Supporting Information), or VPARP (also refers to the “active domain”), and the optical density at 405 nm was measured every 60 seconds over a 2 hour time period. Change in absorbance was assessed in triplicate, and blanks containing 0 to 700 μM ADP-ribose-pNP in PARP assay buffer were also measured over the same time period. The absorbance of a range of p-nitrophenol concentrations was determined at 405 nm, and the slope of this calibration curve (see Supporting Information) was used to convert the absorbencies to moles of product generated; in this way the kinetic parameters for PARP-1, tankyrase-1, and VPARP were calculated (see Table 1 and FIG. 2). […]
(§4) The plate was divided in half with protein added to half the wells and the other half serving as blanks containing only PARP assay buffer and substrate. […] The plate was then read on a SpectraMax plus 384 UV/Vis plate reader (Molecular Devices), at 405 nm for 2 hours with observations performed once every minute. […]

bovine serum albumin = bovine serum albumin (Bos taurus, UniProt P02769); assay: Control experiment with BSA (non-specific substrate cleavage); assay type: biochemical; details: 20 μM BSA, monitored 2 hours
Procedure: While exact kinetic parameters for PARP-1 can vary with the assay used, for PARP-1 the KM value with ADP-ribose-pNP is consistent with that of the natural β-NAD^+ substrate, while the Vmax is approximately 100 fold lower with the calorimetric substrate (see Table 1). […] To our knowledge, no data is available on the kinetic parameters of VPARP with β-NAD^+.
Control experiment with BSA. To determine that substrate cleavage is specific to the PARP family of enzymes, 16 μL of BSA was added to 81.5 μL of PARP assay buffer in a 96 well plate so that the final concentration was 20 μM in protein. The experiment was performed in triplicate along with controls that contained PARP assay buffer only. To both the wells containing only buffer or buffer and BSA, 2.5 μL of a 10 mM stock of the substrate was added to start the reaction. The plate was monitored at 405 nm for 2 hours.

PARP-1 [5] = biological target: T3, PARP-1; assay: Continuous colorimetric PARP kinetic assay with ADP-ribose-pNP, PARP-1; assay type: biochemical; set-up: purchased Trevigen
Procedure: as §1
Preparation of damaged DNA for PARP-1. […]
Kinetics of PARP-1. […] The plate was then read on a SpectraMax plus UV/Vis plate reader (Molecular Devices), at 405 nm for 2 hours, reading once every minute with mixing between reads.
as §2

[6] = substrate: Nc1ncnc2c1ncn2[C@@H]1O[C@H](COP(=O)(O)OP(=O)(O)OC[C@H]2O[C@@H](Oc3ccc([N+](=O)[O-])cc3)C(O)C2O)C(O)C1O; assay: Continuous colorimetric PARP kinetic assay with ADP-ribose-pNP, VPARP active domain; assay type: biochemical; details: other: VPARP active domain; substrate ADP-ribose-pNP; 405 nm
Procedure: as §3, §4

[7] = tankyrase-1, versus literature values
[8] = tankyrase-1 active domain, substrate ADP-ribose-pNP, 405 nm

T3 sequence (P09874 whole entry, the tested form may be a part): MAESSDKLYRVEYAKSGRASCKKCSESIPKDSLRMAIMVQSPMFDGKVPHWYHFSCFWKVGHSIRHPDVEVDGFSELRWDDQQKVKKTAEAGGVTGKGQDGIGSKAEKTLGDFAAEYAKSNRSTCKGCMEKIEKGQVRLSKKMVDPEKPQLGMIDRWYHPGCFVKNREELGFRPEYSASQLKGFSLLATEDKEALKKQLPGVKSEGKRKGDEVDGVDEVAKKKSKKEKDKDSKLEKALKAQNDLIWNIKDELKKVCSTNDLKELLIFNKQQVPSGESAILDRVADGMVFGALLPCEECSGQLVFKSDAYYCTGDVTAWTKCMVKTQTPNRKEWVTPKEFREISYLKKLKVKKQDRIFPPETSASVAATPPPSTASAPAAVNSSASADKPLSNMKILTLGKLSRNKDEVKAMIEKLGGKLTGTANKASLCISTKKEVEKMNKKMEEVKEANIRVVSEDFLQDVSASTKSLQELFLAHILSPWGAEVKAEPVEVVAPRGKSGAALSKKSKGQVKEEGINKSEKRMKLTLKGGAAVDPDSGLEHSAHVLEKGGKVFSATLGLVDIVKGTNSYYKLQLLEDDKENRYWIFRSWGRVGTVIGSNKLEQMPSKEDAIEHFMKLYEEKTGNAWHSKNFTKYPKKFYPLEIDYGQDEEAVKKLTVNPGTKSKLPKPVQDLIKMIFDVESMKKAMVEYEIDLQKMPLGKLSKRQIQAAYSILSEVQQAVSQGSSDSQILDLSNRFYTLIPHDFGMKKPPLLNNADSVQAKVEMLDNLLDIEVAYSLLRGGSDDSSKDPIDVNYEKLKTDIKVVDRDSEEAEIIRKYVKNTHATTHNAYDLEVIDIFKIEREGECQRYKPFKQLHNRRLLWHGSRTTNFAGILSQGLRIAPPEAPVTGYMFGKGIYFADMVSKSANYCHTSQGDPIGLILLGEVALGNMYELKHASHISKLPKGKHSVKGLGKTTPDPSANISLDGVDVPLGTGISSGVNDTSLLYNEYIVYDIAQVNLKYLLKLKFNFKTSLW
Chain of bovine serum albumin (P02769 25-607): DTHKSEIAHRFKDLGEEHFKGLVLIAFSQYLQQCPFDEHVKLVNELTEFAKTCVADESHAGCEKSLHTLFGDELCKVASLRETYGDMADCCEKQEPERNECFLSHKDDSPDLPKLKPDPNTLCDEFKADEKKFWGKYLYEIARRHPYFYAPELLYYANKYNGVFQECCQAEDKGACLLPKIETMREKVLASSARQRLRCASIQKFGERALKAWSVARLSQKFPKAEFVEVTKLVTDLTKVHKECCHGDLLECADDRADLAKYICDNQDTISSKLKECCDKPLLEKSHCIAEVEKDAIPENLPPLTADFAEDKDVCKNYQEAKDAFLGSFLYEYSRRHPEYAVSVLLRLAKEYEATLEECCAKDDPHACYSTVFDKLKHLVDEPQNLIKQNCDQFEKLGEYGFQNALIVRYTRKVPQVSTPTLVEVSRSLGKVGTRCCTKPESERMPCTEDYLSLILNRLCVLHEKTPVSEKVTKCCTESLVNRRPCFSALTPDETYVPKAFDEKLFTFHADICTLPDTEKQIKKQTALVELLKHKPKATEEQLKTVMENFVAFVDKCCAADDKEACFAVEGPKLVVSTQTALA

Molecule: PARP-1 (Homo sapiens)
Km [1]: 151 µM
Vmax [1]: 0.0013 µmol/min/mg
kcat [1]: 0.025 s⁻¹

Molecule: NC(=O)c1ccc[n+]([C@@H]2O[C@H](COP(=O)([O-])OP(=O)(O)OC[C@H]3O[C@@H](n4cnc5c(N)ncnc54)[C@H](O)[C@@H]3O)[C@@H](O)[C@H]2O)c1 [β-NAD^+, nicotinamide adenine dinucleotide]
Km (tankyrase-1 [2]): 1500 µM
kcat (tankyrase-1 [2]): 0.71 s⁻¹
Km (PARP-1 [3]): 59 to 278 µM
Vmax (PARP-1 [3]): 0.2 to 2.4 µmol/min/mg
kcat (PARP-1 [3]): 0.41 s⁻¹

KM fold lower than literature value with β-NAD+ as substrate (tankyrase-1 [4]; [7]): approximately 18 fold
Vmax compared to literature values with β-NAD+ as substrate (tankyrase-1 [4]; [7]): significantly lower
Km (tankyrase-1 [4]; [8]): 82 µM
Vmax (tankyrase-1 [4]; [8]): 1.81e-05 µmol/min/mg
kcat (tankyrase-1 [4]; [8]): 1.88e-05 s⁻¹
Vmax (VPARP): 2.03e-06 µmol/min/mg
signal at 405 nm on incubation with bovine serum albumin (bovine serum albumin): no signal
Vmax fold lower with colorimetric substrate than with natural β-NAD+ substrate (PARP-1 [5]; PARP-1, versus literature values): approximately 100 fold
Vmax (PARP-1 [5]; PARP-1 activated with DNase digested DNA, substrate ADP-ribose-pNP, 405 nm): 0.0013 µmol/min/mg
Molecule: Nc1ncnc2c1ncn2[C@@H]1O[C@H](COP(=O)(O)OP(=O)(O)OC[C@H]2O[C@@H](Oc3ccc([N+](=O)[O-])cc3)C(O)C2O)C(O)C1O (stereo partly shown) [ADP-ribose-pNP]

B1: VPARP (Homo sapiens) (protein)
chain: PPSLAKYRALRCKIEHVEQNTEEFLRVRKEVLQNHHSKSPVDVLQIFRVGRVNETTEFLSKLGNVRPLLHGSPVQNIVGILCRGLLLPKVVEDRGVQRTDVGNLGSGIYFSDSLSTSIKYSHPGETDGTRLLLICDVALGKCMDLHEKDFSLTEAPPGYDSVHGVSQTASVTTDFEDDEFVVYKTNQVKMKYIIKFSMPGDQIKD
notes: The plasmid with the catalytic domain of VPARP, pET28b-p193cat; made in house; host or cells: E. coli Rosetta
Km [6]: 46 µM
Vmax [6]: 2.03e-06 µmol/min/mg
